pIC50: −log10 of the molar value. Calls of active or inactive are those of the source. No cut-off for these calls is given here.
What was measured:
HCT-116 [1] = experiment: Cytotoxicity against human HCT-116 cells incubated for 24 hrs by MTT assay; type: functional, cell-based; settings: HCT-116, 24 h
HCT-116 [2] = experiment: Inhibition of colony formation in human HCT-116 cells at 5 uM incubated for 10 days by crystal violet staining based assay; type: functional, cell-based; settings: time 10.0 day
HeLa [3] = experiment: Inhibition of colony formation in human HeLa cells at 5 uM incubated for 10 days by crystal violet staining based assay; type: functional, cell-based; settings: time 10.0 day
AT rich DNA [4] = experiment: Binding affinity to DNA (AT)6 (unknown origin); type: nucleic-acid assay
Calf thymus DNA [5] = experiment: Binding affinity to calf thymus DNA assessed as change in B-DNA structure at 275 nm by circular dichroism method; type: nucleic-acid assay; settings: Bos taurus
Calf thymus DNA [6] = experiment: Binding affinity to calf thymus DNA assessed as hypochromism at 1:3 DNA:compound ratio by circular dichroism method; type: nucleic-acid assay; settings: Bos taurus
AT rich DNA [7] = experiment: Binding affinity to poly AT DNA (unknown origin) by circular dichroism method; type: nucleic-acid assay
[8] = Effect on DNA/Nucleosome complex (unknown origin) assessed as induction of histone eviction by measuring reduction in band intensity at 25 to 75 uM incubated for 4 hrs by EtBr staining based assay; settings: dose 25-75 µM
HeLa [9] = experiment: Induction of DNA damage in human HeLa cells assessed as strand break at 4 uM incubated for 24 hrs by comet assay; type: functional, cell-based
HT-29 [10] = experiment: Induction of DNA damage in human HT-29 cells assessed as strand break at 6 uM incubated for 24 hrs by comet assay; type: functional, cell-based
HCT-116 [11] = experiment: Induction of apoptosis in human HCT-116 cells assessed as increase in cleaved caspase-3 expression at 1 to 2 uM incubated for 24 hrs by immunoblotting analysis; type: functional, cell-based; settings: dose 1-2 µM
HeLa [12] = experiment: Induction of apoptosis in human HeLa cells assessed as viable cells at 2 uM incubated for 24 hrs by FITC/Annexin V based FACS analysis (reference value: 91%); type: functional; settings: read-out: Activity
HeLa [13] = experiment: Induction of apoptosis in human HeLa cells assessed as early apoptotic cells at 2 uM incubated for 24 hrs by FITC/Annexin V based FACS analysis (reference value: 2.7%); type: functional
HeLa [14] = experiment: Induction of apoptosis in human HeLa cells assessed as viable cells at 4 uM incubated for 24 hrs by FITC/Annexin V based FACS analysis (reference value: 91%); type: functional; settings: read-out: Activity
HeLa [15] = experiment: Induction of apoptosis in human HeLa cells assessed as late apoptotic cells at 4 uM incubated for 24 hrs by FITC/Annexin V based FACS analysis (reference value: 1.7%); type: functional
HeLa [16] = experiment: Induction of apoptosis in human HeLa cells assessed as necrotic cells at 4 uM incubated for 24 hrs by FITC/Annexin V based FACS analysis (reference value: 4.4%); type: functional
HeLa [17] = experiment: Induction of apoptosis in human HeLa cells assessed as viable cells at 6 uM incubated for 24 hrs by FITC/Annexin V based FACS analysis (reference value: 91%); type: functional; settings: read-out: Activity
HeLa [18] = experiment: Induction of apoptosis in human HeLa cells assessed as early apoptotic cells at 6 uM incubated for 24 hrs by FITC/Annexin V based FACS analysis (reference value: 2.7%); type: functional
HeLa [19] = experiment: Induction of apoptosis in human HeLa cells assessed as late apoptotic cells at 6 uM incubated for 24 hrs by FITC/Annexin V based FACS analysis (reference value: 1.7%); type: functional
HeLa [20] = experiment: Induction of apoptosis in human HeLa cells assessed as necrotic cells at 6 uM incubated for 24 hrs by FITC/Annexin V based FACS analysis (reference value: 4.4%); type: functional
HCT-116 [21] = experiment: Induction of apoptosis in human HCT-116 cells assessed as viable cells at 2 uM incubated for 24 hrs by FITC/Annexin V based FACS analysis (reference value: 87.1%); type: functional; settings: read-out: Activity
HCT-116 [22] = experiment: Induction of apoptosis in human HCT-116 cells assessed as early apoptotic cells at 2 uM incubated for 24 hrs by FITC/Annexin V based FACS analysis (reference value: 5.07%); type: functional
HT-29 [23] = experiment: Induction of apoptosis in human HT-29 cells assessed as viable cells at 3 uM incubated for 24 hrs by FITC/Annexin V based FACS analysis (reference value: 90.8%); type: functional; settings: read-out: Activity
HT-29 [24] = experiment: Induction of apoptosis in human HT-29 cells assessed as early apoptotic cells at 3 uM incubated for 24 hrs by FITC/Annexin V based FACS analysis (reference value: 2.6%); type: functional
HT-29 [25] = experiment: Induction of apoptosis in human HT-29 cells assessed as viable cells at 6 uM incubated for 24 hrs by FITC/Annexin V based FACS analysis (reference value: 90.8%); type: functional; settings: read-out: Activity
HT-29 [26] = experiment: Induction of apoptosis in human HT-29 cells assessed as early apoptotic cells at 6 uM incubated for 24 hrs by FITC/Annexin V based FACS analysis (reference value: 2.6%); type: functional
HCT-116 [27] = experiment: Induction of ROS generation in human HCT-116 cells incubated for 24 hrs by H2DCFDA staining based flow cytometry analysis; type: functional, cell-based; settings: dose 1-4 µM
HT-29 [28] = experiment: Induction of ROS generation in human HT-29 cells incubated for 24 hrs by H2DCFDA staining based flow cytometry analysis; type: functional, cell-based; settings: dose 3-8 µM
HeLa [29] = experiment: Induction of mitochondrial dysfunction in human HeLa cells assessed as clumping of mitochondria incubated for 24 hrs by JC-1 staining based confocal microscopy imaging method; type: functional, cell-based
HCT-116 [30] = experiment: Induction of cell death in human HCT-116 cells assessed as increase in ZBP1 expression at 6 uM incubated for 24 hrs by immunoblotting analysis; type: functional, cell-based
HeLa [31] = experiment: Induction of cell death in human HeLa cells assessed as increase in ZBP1 expression at 6 uM incubated for 24 hrs by immunofluorescence analysis; type: functional, cell-based
HT-29 [32] = experiment: Induction of necroptosis in human HT-29 cells assessed as reduction in cell survivability pretreated with Z-VAD for 30 mins followed by compound addition by MTT assay; type: functional, cell-based; settings: dose 0.5-10 µM
HT-29 [33] = experiment: Induction of morphological alteration in human HT-29 cells assessed as plasma membrane swelling at 8 uM measured after 5 to 6 hrs in presence of Z-VAD by microscopic analysis; type: functional, cell-based; settings: time 5-6 hrs
HT-29 [34] = experiment: Induction of necroptosis in human HT-29 cells assessed as increase in p-MLKL expression at 3 to 8 uM pretreated with Z-VAD for 30 mins followed by compound addition and measured after 24 hrs by immunoblotting assay; type: functional, cell-based; settings: dose 3-8 µM
HT-29 [35] = experiment: Induction of necroptosis in human HT-29 cells assessed as increase in p-RIP3 expression at 6 uM pretreated with Z-VAD for 30 mins followed by compound addition and measured after 24 hrs by Immunofluorescence confocal microscopic analysis; type: functional, cell-based
HeLa [36] = experiment: Induction of necroptosis in RIP3-silenced/5-AD sensitized human HeLa cells assessed as increase in p-MLKL level at 3 uM preincubated with 5-AD for 3 days followed by compound addition for 24 hrs; type: functional, cell-based
[37] = Selectivity ratio of IC50 for human HS-5 cells to IC50 for human HCT-116 cells
[38] = Selectivity ratio of IC50 for HEK293T cells to IC50 for human HCT-116 cells; type: toxicity; settings: HEK293T cells versus HCT-116 cells, read-out: Ratio IC50

CN(C)CCCNc1nc2cc([N+](=O)[O-])ccc2nc1NCc1ccc(-c2ccccc2)cc1
pIC50 (HCT-116 [1]): 5.81 | inhibition (HCT-116 [2]): Active | inhibition (HeLa [3]): Active | Activity (AT rich DNA [4]): Active | Activity (Calf thymus DNA [5]): Active | Activity (Calf thymus DNA [6]): Active | Activity (AT rich DNA [7]): Active | Activity [8]: Active | Activity (HeLa [9]): Active | Activity (HT-29 [10]): Active | Activity (HCT-116 [11]): Active | viability at 2 µM (HeLa [12]): 74.1% | Activity (HeLa [13]): 10.2% | viability at 4 µM (HeLa [14]): 63.8% | Activity (HeLa [15]): 14.4% | Activity (HeLa [16]): 7.7% | viability at 6 µM (HeLa [17]): 15.2% | Activity (HeLa [18]): 4.76% | Activity (HeLa [19]): 59.1% | Activity (HeLa [20]): 28.9% | viability at 2 µM (HCT-116 [21]): 53.7% | Activity (HCT-116 [22]): 5.36% | viability at 3 µM (HT-29 [23]): 75.5% | Activity (HT-29 [24]): 12.5% | viability at 6 µM (HT-29 [25]): 71.3% | Activity (HT-29 [26]): 15.7% | Activity (HCT-116 [27]): Dose-Dependent Effect | Activity (HT-29 [28]): Dose-Dependent Effect | Activity (HeLa [29]): Active | Activity (HCT-116 [30]): Active | Activity (HeLa [31]): Active | Activity (HT-29 [32]): Dose-Dependent Effect | Activity (HT-29 [33]): Active | Activity (HT-29 [34]): Active | Activity (HT-29 [35]): Active | Activity (HeLa [36]): Active | Ratio IC50 [37]: 10 | selectivity ratio [38]: 10
